Experimental data published in the NIST ThermoML archive (doi:10.1021/je800158z).

What was measured:
[1] = 81.5 kPa, Liquid
[2] = xn = mol fraction of the nth substance listed; conditions: 81.5 kPa, Liquid

CC(C)O [propan-2-ol]
[1]
Conditions	mass density [kg/m3]
293.15 K	785.1
303.15 K	776.63
313.15 K	767.84
323.15 K	758.68

O [water] + CCCO
Conditions	mass density [kg/m3]
[2], 323.15 K, x2 = 0	988.03

CC(C)O [propan-2-ol] + O
mass density [kg/m3], [2]
Conditions	293.15 K	303.15 K	313.15 K	323.15 K
x1 = 0.0399	979.61	976	971.52	966.2
x1 = 0.1197	948.88	941.64	934.18	926.48
x1 = 0.2017	916.63	908.64	900.42	891.98
x1 = 0.28	891.87	883.56	875.01	866.23
x1 = 0.359	871.15	862.65	853.89	844.85
x1 = 0.4384	854.11	845.46	836.52	827.31
x1 = 0.5204	839.36	830.58	821.54	812.2
x1 = 0.5995	827.56	818.72	809.6	800.16
x1 = 0.6801	817.14	808.26	799.08	789.6
x1 = 0.7552	808.56	799.67	790.48	780.98
x1 = 0.8403	799.95	791.1	781.97	772.47
x1 = 0.9225	792.03	783.34	774.33	764.97
x1 = 1	785.1	776.63	767.84	758.68

CCCO [propan-1-ol]
[1]
Conditions	mass density [kg/m3]
293.15 K	803.59
303.15 K	795.53
313.15 K	787.38
323.15 K	778.92

O [water] + CC(C)O
Conditions	mass density [kg/m3]
[2], 323.15 K, x2 = 0	988.03

CCCO [propan-1-ol] + O
mass density [kg/m3], [2]
Conditions	293.15 K	303.15 K	313.15 K	323.15 K
x1 = 0.0401	980.98	976.93	972.23	966.91
x1 = 0.1202	947.94	941.35	934.48	927.31
x1 = 0.2	918.86	911.37	903.85	896.05
x1 = 0.2798	895.6	887.91	879.98	871.78
x1 = 0.3599	877.53	869.57	861.38	852.93
x1 = 0.4399	863	854.86	846.49	837.86
x1 = 0.5197	851.12	842.87	834.37	825.64
x1 = 0.5986	840.82	832.48	823.92	815.16
x1 = 0.6792	831.69	823.34	814.76	805.95
x1 = 0.7485	824.84	816.47	807.91	799.13
x1 = 0.8383	816.74	808.45	799.96	791.25
x1 = 0.9052	811.17	802.94	794.55	785.94
x1 = 1	803.59	795.53	787.38	778.92
